Measured values: patent US6165770A, “Alkaline stable amylase from Thermoalcalibacter” (Novo Nordisk A/S, priority 1996, dated 2000)
Counter-ions that a name gives are not always drawn.

Target: T1, α-amylase from Thermoalcalibacter bogoriae (Anaerobranca gottschalkii, UniProt Q5I942)
T1 sequence (Q5I942 24-532): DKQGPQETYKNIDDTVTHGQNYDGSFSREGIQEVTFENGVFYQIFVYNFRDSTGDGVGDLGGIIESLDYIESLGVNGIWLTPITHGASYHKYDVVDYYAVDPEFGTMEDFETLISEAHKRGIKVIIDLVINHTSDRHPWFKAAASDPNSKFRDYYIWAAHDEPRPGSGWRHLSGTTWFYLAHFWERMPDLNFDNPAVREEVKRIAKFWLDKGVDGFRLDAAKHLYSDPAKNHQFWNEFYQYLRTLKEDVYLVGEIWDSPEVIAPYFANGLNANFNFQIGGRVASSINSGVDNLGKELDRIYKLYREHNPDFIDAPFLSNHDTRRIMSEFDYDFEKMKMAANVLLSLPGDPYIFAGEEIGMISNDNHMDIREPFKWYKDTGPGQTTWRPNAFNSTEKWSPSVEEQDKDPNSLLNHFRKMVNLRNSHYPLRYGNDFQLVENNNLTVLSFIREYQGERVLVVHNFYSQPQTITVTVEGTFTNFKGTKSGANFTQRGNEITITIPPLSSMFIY
Test: Effect of metal ions and chemical reagents on amylase activity
Format: biochemical
Procedure: The effect of metal ions on the activity of the amylase of the present invention was examined by pre-incubating the enzyme together with metal ions for 30 min. at 65° C., pH 8.0 in a substrate solution containing (wt/vol) soluble starch (0.5%). Subsequently an enzyme assay was performed at 65° C. for 30 min in order to determine the residual activity of the amylase. For further details see working example herein (vide infra) and FIG. 4.
The amylase activity was measured at pH 8.0 -higher pH would interfere with metal ion solutions- and 65° C. in presence of various metal ions at 1 mM, 2 mM and 5 mM concentration and in presence of some chemical reagents (FIG. 4).

[1] = pH 8.0, 65° C., 1 mM, 2 mM and 5 mM

effect of metal ions on amylase activity [1]	SMILES	also measured
not or only slightly inhibited	[Ca+2] [Ca^2+]	–
not or only slightly inhibited	[Co+2] [Co^2+]	–
Strong inhibition	[Cu+2] [Cu^2+]	–
–	OC(CS)C(O)CS (stereo not drawn) [DTT]	effect of chemical reagents on amylase activity at 5 mM (pH 8.0, 65° C.): totally inhibited
–	O=C(O)CN(CCN(CC(=O)O)CC(=O)O)CC(=O)O [EDTA]	effect of metal ions on amylase activity (pH 8): not or only slightly inhibited
Strong inhibition	[Fe+2] [Fe^2+]	–
–	N=C(N)N [Guanidine-HCl]	effect of chemical reagents on amylase activity at 5 mM (pH 8.0, 65° C.): stimulatory effect
Moderate inhibition	[Mg+2] [Mg^2+]	–
moderate stimulation	[Mn+2] [Mn^2+]	–
–	NCCc1ccc(S(=O)(=O)F)cc1 [Pefabloc SC]	effect of chemical reagents on amylase activity at 5 mM (pH 8.0, 65° C.): did not interfer
–	CCCCCCCCCCCCOS(=O)(=O)O [SDS]	effect of chemical reagents on amylase activity at 5 mM (pH 8.0, 65° C.): totally inhibited
Strong inhibition	[V+4] [V^4+]	–
Moderate inhibition	[Zn+2] [Zn^2+]	–

SMILES	effect of metal ions on amylase activity [1]	also measured
[Cr+6] [Cr^6+]	Strong inhibition	–
[Ni+2] [Ni^2+]	Moderate inhibition	–
